Assay [1] addresses recombinant ALK kinase domain (Homo sapiens, UniProt Q9UM73). Description: LanthaScreen Eu Kinase Binding Assay, recombinant ALK kinase domain. Conditions: room temperature, 1 h. The method, then: Enzymatic assay for recombinant ALK kinase domain was conducted using the LanthaScreen® Eu Kinase Binding Assays. LanthaScreen® Eu Kinase Binding Assays are based on the binding and displacement of a proprietary. The assay was performed at room temperature for 1 h in a total volume of 15 μL, including 5 μL of test compound, 5 μL of kinase/antibody mixture and 5 μL of tracer. After 1 h incubation, fluorescence was measured. The division of acceptor/tracer emission (665 nm) by the antibody/donor emission (615 nm) was used to calculate the emission ratio.
On the technique in general: TR-FRET usually uses a lanthanide donor and a delayed reading to cut background.

The subject of the next assay is H2228 cells. Description: MTT cell viability assay, H2228 cells. The format is cell-based. Conditions: Homo sapiens, NCI-H2228, 72 h treatment. The method, then: (§1) H2228 and CCD19(Lu) cells were obtained from the American Type Culture Collection and cultured in an environment of 5% CO2 at 37° C. in RPMI-1640 mediums supplemented with 10% fetal bovine serum (FBS), 100 units/mL penicillin, and 100 μg/mL streptomycin.
(§2) Cell viability was determined by MTT assay. H2228 and CCD19 cells (3×10^3 cells/well) were seeded into a 96-well plate and treated with indicated concentrations of the compound of Formula (V) for 72 h. At the end of incubation, 10 μl MTT (0.5 mg/ml) (Sigma) was added to each well. After incubating for 4 h at 37° C., supernatants were removed and 150 μl of DMSO was added. The formazan crystals formed inside the viable cells were solubilized in DMSO and the OD was read with Microplate Reader (Epoch, Winooski, USA) at 570 nm. The IC50 value for the compound was determined by GraphPad Prim5.0 software. The experiments were performed three times with three replicates in each.
(Tetrazolium dyes change colour on reduction, which living cells bring about.)

The subject of another assay is normal lung cells CCD19. Description: MTT cell viability assay, normal lung cells CCD19. The following applies: 72 h treatment. The format is cell-based. The method, then: as §1, §2

For orientation: EC50 means the concentration giving half of the maximal effect. By IC50 is commonly meant the midpoint of a concentration-inhibition curve. The low end stands for greater potency in that assay, the high end for weaker potency in that assay.

Chain of recombinant ALK kinase domain (Q9UM73 1116-1392 limits assumed): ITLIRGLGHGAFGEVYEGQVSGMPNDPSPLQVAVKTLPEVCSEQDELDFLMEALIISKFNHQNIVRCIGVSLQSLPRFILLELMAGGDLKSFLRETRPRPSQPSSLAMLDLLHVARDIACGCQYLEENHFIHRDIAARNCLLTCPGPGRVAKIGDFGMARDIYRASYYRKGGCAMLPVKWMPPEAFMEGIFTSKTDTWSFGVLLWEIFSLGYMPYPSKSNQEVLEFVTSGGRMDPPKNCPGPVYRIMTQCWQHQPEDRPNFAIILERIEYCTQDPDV

With `Cc1sc2nc3c4ccccc4c(NCCCN(C)C)nn3c(=O)c2c1C` [Formula (V)], in assay [1], the EC50 was 0.0196 µM. The IC50 with H2228 cells was 4.11 ± 0.96 µM; in the assay on normal lung cells CCD19, 16.8 ± 2.04 µM.

For the origin of these results see US10111876B2, “ALK Kinase Inhibitor and its use” (Macau University of Science and Technology, priority 2016, dated 2018).
